These results are taken from publication PMC12668304, “A Triple Threat Against Ovarian Cancer: Os(II)‐Pt(IV)‐Ceritinib Conjugates for Photodynamic Therapy, Chemotherapy, and Immunogenic Cell Death Induction” (Angewandte Chemie (International Ed. in English), 2025).

This test concerns MCA205 cells co-incubated with RAW 264.7 macrophages. In words: Phagocytosis of treated cancer cells by macrophages (flow cytometry, confocal microscopy). It counts as cell-based, mouse. To be noted: IC50,48 h concentration, 3 h co-incubation. The method, then:
All compounds were incubated for 4 h with the cells, which were either irradiated at 740 nm (1 h) or kept in the dark. 16 h post‐treatment, cancer cells were stained with CellMask Green, while RAW 264.7 macrophages were stained with CellMask DeepRed. Co‐culture was performed at a 1 : 2 (macrophage : tumour cells) ratio for 3 h. Thereafter, the phagocytosis was evaluated by flow cytometry and confocal microscopy.
To quantify this phagocytic response, a flow cytometry assay was performed, see Figure 12. MCA205 cells were incubated with Os‐Pt‐Cer for 4 h, after which half of the samples were either kept in the dark (−L) or irradiated (+L) for 1 h (740 nm). After an additional 16 h, the cells were co‐incubated with RAW 264.7 macrophages for 3 h. […] Flow cytometry analysis was used to quantify phagocytosis, identifying double‐positive (green–red) events as phagocytic macrophages. […]
analyzed using an ATP assay kit according to the manufacturer’s instructions. Luminescence was measured on a SPARK multimode reader (Tecan). […]
MCA205 and A2780 cells were seeded on µ-slide 8 well (Ibidi) (100 µl/well) and left for 24 h to attach to the bottom at a density of 2 x 10^4 cells/well and incubated overnight. […] 30 minutes before starting confocal fluorescence microscopy analysis, Hoechst was added at a final concentration of 1 µg/mL. […] Images were analysed with LAS X Film FCS software. […]

The structures appear in SMILES notation.

In the case of `C=Cc1c(C)c2cc3nc(c(CC(=O)O)c4[nH]c(cc5nc(cc1[nH]2)C(C)=C5CC)c(C)c4C(=O)O)[C@@H](CCC(=O)O)[C@@H]3C` [Ce6, Chlorin e6], the “phagocytosis, double‐positive (green–red) events (upper right quadrant)” value (+L (740 nm, 1 h)) is 7.4%.
With `O=C1[O][Pt]2([NH][C@@H]3CCCC[C@H]3[NH]2)[O]C1=O` [Oxaliplatin], the “phagocytosis, double‐positive (green–red) events (upper right quadrant)” value (light condition not given) came to 6.0%.
